Drawing on ChEMBL document CHEMBL3580531, “Biotransformation of Curcumenol by Mucor polymorphosporus” (J Nat Prod, 2015), this text covers IC50 for eight compounds.

The test relates to RAW264.7. Put plainly: Antiinflammatory activity in mouse RAW264.7 cells assessed as inhibition of LPS-induced nitric oxide production after 1 day by Griess assay. The following applies: RAW264.7, 24 h. In kind it is functional, cell-based. Background: Griess reagent forms a coloured azo dye with nitrite.
Regarding `CC1=C[C@@]2(O)O[C@@]3(C/C2=C(/C)CO)[C@@H](C)CC[C@@H]13`, the IC50 was 9.6 µM.

On to `CC(C)=C1C[C@@]23O[C@]1(O)C[C@](C)(O)[C@@H]2CC[C@@H]3C`, for which the IC50 is over 50 µM. Take `CC1=C[C@@]2(O)O[C@]3(CC2=C(C)C)[C@H]1[C@H](O)C[C@@H]3C`: the IC50 came to 18.5 µM.

`CC(C)=C1C[C@@]23O[C@]1(O)C=C(CO)[C@@H]2CC[C@@H]3C`: the IC50 turned out to be 6.4 µM. Then `Cc1cc(=O)c(C(C)(C)O)cc2c1C(=O)C[C@@H]2C`, with 6.4 µM; and `Cc1cc(C(=O)O)cc2c1C(=O)C[C@@H]2C`, with 2.8 µM; and `CC1=C[C@]2(O)O[C@@]3(CC2=C(C)C)[C@@H](C)CC[C@@H]13` [CURCUMENOL], with 5.4 µM. Then `COc1ccc2c(c1)c(CC(=O)O)c(C)n2C(=O)c1ccc(Cl)cc1` [INDOMETHACIN], with 14.1 µM.

As usually defined, the IC50 is the concentration at which inhibition is half-maximal.
